Results as given in publication PMC10340464, “Identification of a Novel SSTR3 Full Agonist for the Treatment of Nonfunctioning Pituitary Adenomas” (Cancers, 2023).

Key:
[1] = test system: GHRH-stimulated GH release, primary cultures of rat anterior pituitary cells; experiment: Inhibition of GHRH-induced GH release in rat pituitary primary cell culture; type: cell-based; settings: rat GHRH 3x10^-9 M, 3 h 37 °C, GH by ELISA
[2] = test system: SSTR5-tGFP; experiment: Receptor internalization in U2OS-transfected cells (SSTR5-tGFP); type: cell-based, human; settings: 7 h, high-content imaging, n = 3, method: percentage of activity relative to SST28 10^−6 M
Method: (§1) Compounds were tested at five concentrations (10^−5, 10^−6, 10^−7, 10^−8, 10^−9 M) in comparison to untreated cells.
(§2) SST agonists were added to U2OS recombinant cell lines in OptiMeM medium (Life technologies 51985-034, Monza, Italy) for 3 h (SSTR2, SSTR3) or 7 h (SSTR5) (n = 3). After formaldehyde fixation, nuclei were stained using DAPI (2 µg/mL), and the fluorescence was measured with BD Pathway 855 High-Content Bioimager from Becton Dickinson. The receptor internalization was calculated using AttoVision 1.6 Software. Approximately 500 cells per field were analyzed. […]
(§3) (Invitrogen, Carlsbad, CA). Stable transfectants were selected in the presence of 500 µg/ml G-418. […]
(§4) % picric acid in phosphate buﬀer (pH 6.9) for 30 minutes at room temperature (RT). […]
(§5) 3.2. U2OS human cell lines transfected with human receptors (SSTR2-tGFP, SSTR3-tGFP,
(§6) Compounds were tested at ﬁve d iﬀerent concentrations (10-5, 10-6, 10-7, 10-8, 10^-9 M) in comparison to untreated cells.
(§7) U2OS recombinant cell lines were obtained from Innoprot (Derio, Spain). […] Nuclei were stained using DAPI (2 μg/ml) and the ﬂuorescence was measured using a BD Pathway 855 High-Content Bioimager from Becton Dickinson. The receptor internalization was calculated using AttoVision Software. […]
(§8) Agonist activity of test compounds was calculated relatively to positive control

[3] = test system: µ (MOP) (h); experiment: Single-dose binding assay on µ opioid receptor; design: species or system human; settings: 10^−5 M
[4] = test system: SSTR3-tGFP; experiment: Receptor internalization in U2OS-transfected cells (SSTR3-tGFP); type: cell-based, human; settings: 3 h, high-content imaging, n = 3, method: percentage of activity relative to SST28 10^−6 M
Method: as §1, §2, §3, §4, §5, §6, §7, §8

[5] = species, matrix, method and reference not given; cited from earlier work
[6] = target: T1, SSTR2 (Homo sapiens, UniProt P30874); experiment: SSTR2 phosphorylation, Western blot with phosphosite-specific antibodies, HEK293-transfected; type: cell-based; settings: HEK293 stably expressing SSTR2, agonist 5 min 37 °C
T1 construct: expressed in transfected cells
T1 sequence (P30874 whole entry): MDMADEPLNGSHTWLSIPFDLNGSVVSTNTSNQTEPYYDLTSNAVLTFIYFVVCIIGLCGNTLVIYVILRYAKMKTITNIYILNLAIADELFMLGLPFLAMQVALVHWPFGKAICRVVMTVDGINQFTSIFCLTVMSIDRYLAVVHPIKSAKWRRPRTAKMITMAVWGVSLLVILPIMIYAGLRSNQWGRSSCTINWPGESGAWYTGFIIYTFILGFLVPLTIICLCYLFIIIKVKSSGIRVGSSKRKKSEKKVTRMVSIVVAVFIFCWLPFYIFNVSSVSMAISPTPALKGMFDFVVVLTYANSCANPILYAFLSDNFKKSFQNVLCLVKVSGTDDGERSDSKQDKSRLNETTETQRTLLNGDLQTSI
Method: (§9) Western blot analysis was performed as previously described.
(§10) Next, the activation of human SSTRs induced by SSAs was tested by Western blot using phosphosite-specific antibodies directed against the following residues: S341/pS343 for SSTR2; S337/T341 for SSTR3; T333 for SSTR5 [31].
(§11) 4.1. Western blot analysis
(§12) Western blot analysis was performed as previously described.7–9 Brieﬂy, HEK293 cells stably expressing the human somatostatin receptors were seeded onto poly-L-lysine-coated 60 mm dishes and grown to 90 % confluency. […]
(§13) PierceTM HA epitope tag antibody beads (Thermo Scientific, Rockford, USA) were used to enrich HA-tagged somatostatin receptors or wheat germ lectin-agarose beads for no-tagged somatostatin receptors. To elute proteins from the beads, the samples were incubated in SDS sample buffer for 20 min at 60°C. Supernatants were separated from the beads, loaded on 8% SDS polyacrylamide gels and immunoblotted onto nitrocellulose membranes afterwards. After blocking, membranes were incubated with phosphorylation state-speciﬁc somatostatin receptor antibodies: pS337/pT341-SST3 (7TM0357A), […]
(§14) Antibodies GmbH, Jena, Germany) at a dilution of 1:1000 at 4°C overnight. Membranes were incubated in HRP-linked secondary antibody for 2 hours, followed by detection using a chemiluminescence system (90 mM p-coumaric-acid, 250 mM luminol, 30% […]
(§15) according to the manufacturer’s instructions.

[7] = test system: HA-SSTR3; experiment: SSTR3 phosphorylation, Western blot with phosphosite-specific antibodies, HEK293-transfected; type: cell-based, human; design: key: + = very low activity; ++ = low activity; +++ = high activity; ++++ = very high activity; settings: HEK293 stably expressing HA-SSTR3, agonist 5 min 37 °C
Method: as §9, §10, §11, §12, §13, §14, §15

[8] = test system: HA-tagged SSTR5; experiment: SSTR5 internalization in HEK293 cells, confocal microscopy; type: cell-based, human; settings: 1 µM agonist, 30 min 37 °C
Method: HEK293 cells obtained from DSMZ (Braunschweig, Germany) were transfected with plasmid encoding […] HA-tagged SSTR2, SSTR3 or SSTR5 receptors.
HEK293 cells stably expressing HA-tagged hSSTR cultures were preincubated with anti-HA antibody for 2 h at 4 °C and then exposed to 1 µM agonist for 30 min at 37 °C before fixing and further labeling with Alexa488-conjugated secondary antibody. After mounting with Roti®-MountFluorCare DAPI, cultures were examined using a Zeiss LSM510 META laser scanning confocal microscope (Zeiss, Jena, Germany) (see Supplementary Materials for details).
GH produced by primary cultures was tested by ELISA assay using Rat Growth Hormone Biotrak Enzyme immunoassay Mouse/Rat Growth ELISA (DSL-10-72100) or Rat/Mouse Growth Hormone ELISA (Millipore EZRMGH-45K) diluting supernatants 1:20, according to manufacturer’s instructions. […]
as §7, §8

[9] = target: T2, hSSTR3 (Homo sapiens, UniProt P32745); experiment: Radioligand binding to human SSTR3; settings: from binding IC50
T2 construct: expressed in transfected cells; host or cells: CHO-K1 (membranes)
T2 sequence (P32745 whole entry): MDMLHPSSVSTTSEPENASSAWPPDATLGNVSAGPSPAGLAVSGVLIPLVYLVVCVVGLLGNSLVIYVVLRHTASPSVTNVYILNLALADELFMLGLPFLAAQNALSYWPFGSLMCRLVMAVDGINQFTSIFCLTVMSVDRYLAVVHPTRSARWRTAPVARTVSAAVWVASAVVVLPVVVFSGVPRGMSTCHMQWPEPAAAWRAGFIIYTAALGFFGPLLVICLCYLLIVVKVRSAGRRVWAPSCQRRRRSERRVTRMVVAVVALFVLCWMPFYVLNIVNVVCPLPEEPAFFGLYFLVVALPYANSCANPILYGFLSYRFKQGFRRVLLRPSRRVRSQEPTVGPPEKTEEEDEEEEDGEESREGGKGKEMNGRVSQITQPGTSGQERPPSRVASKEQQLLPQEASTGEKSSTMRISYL
Method: Data were analyzed with XLfit (IDBS) software (version 5.3.1.3) using nonlinear regression applied to a sigmoidal dose–response model. Agonist activity of test compounds is expressed as a percentage of the activity of the reference agonist at its EC100 concentration.
After 60 min at 25°C in a water bath, samples were ﬁltered over GF/B ﬁlters (Perkin
Elmer, 6005177) presoaked in 0.5% PEI for 2h at RT) with a Filtermate Harvester (Perkin
Elmer ). Filters were washed 6 times with 0.5 ml of ice-cold ﬁltration buﬀer, incubated 15
min. on an orbital shaker with 50 µl of Microscint 20 (Packard) and counted for
radioactivity with a TopCountTM or MicroBetaTM for 1 min/well.
Dose-response curve were performed for each SSTR (agonist range 10-11 – 3x10-7 M),
Each point was performed in duplicate2,3
Dose-response data from test compounds were analysed with XLﬁt (IDBS) software
using nonlinear regression applied to a sigmoidal dose-response model.
Agonist activity of test compounds is expressed as a percentage of the activity of the
reference agonist at its EC100 concentration.

## COc1cc2cccc(OC)c2cc1C[C@H]1NC(=O)[C@H](Cc2ccc(O)cc2)NC(=O)[C@@H]2C[C@@H](OC(=O)NCCN)CN2C(=O)[C@H](Cc2ccccc2)NC(=O)[C@H](Cc2ccc(OCc3ccccc3)cc2)NC(=O)[C@H](CCCCN)NC1=O [ITF2984, Cyclo[Tyr(Bn)-Phe-Pro(4-OCONH(CH2)2NH2)-Tyr-3,8-diMeONal-Lys]]
[1]
  GH release (inhibition ≅ 1 nM): 50%
[2]; 10^−5 M
  Receptor internalization in U2OS-transfected cells, SSTR5, at 10^−5 M: 34.6
[2]; 10^−6 M
  Receptor internalization in U2OS-transfected cells, SSTR5, at 10^−6 M (value in brackets): 42.0
[3]
  Percentage of inhibition of opioid receptor µ (MOP) (h) (agonist): 97%
[4]; 10^−5 M
  Receptor internalization in U2OS-transfected cells, SSTR3, at 10^−5 M: 61.1
[4]; 10^−6 M
  Receptor internalization in U2OS-transfected cells, SSTR3, at 10^−6 M (value in brackets): 62.5
[5]
  Half-time life: 18 h
[6]
  Phosphorylation SSTR sites (HEK293-transfected): SSTR2—PS341/S343: ++
[7]
  Phosphorylation SSTR sites (HEK293-transfected): SSTR3—PS337/T341: ++++
  Phosphorylation SSTR sites (HEK293-transfected): SSTR3—PT438: ++++
[8]
  internalization of SSTR5 in transfected HEK293 cells: partial internalization
[9]
  improved affinity for SSTR3 compared to Octreotide or Pasireotide: 10 fold
